Biological target: T1, purified STEP46 enzyme (Homo sapiens, UniProt P54829)
T1 sequence (P54829 1-565): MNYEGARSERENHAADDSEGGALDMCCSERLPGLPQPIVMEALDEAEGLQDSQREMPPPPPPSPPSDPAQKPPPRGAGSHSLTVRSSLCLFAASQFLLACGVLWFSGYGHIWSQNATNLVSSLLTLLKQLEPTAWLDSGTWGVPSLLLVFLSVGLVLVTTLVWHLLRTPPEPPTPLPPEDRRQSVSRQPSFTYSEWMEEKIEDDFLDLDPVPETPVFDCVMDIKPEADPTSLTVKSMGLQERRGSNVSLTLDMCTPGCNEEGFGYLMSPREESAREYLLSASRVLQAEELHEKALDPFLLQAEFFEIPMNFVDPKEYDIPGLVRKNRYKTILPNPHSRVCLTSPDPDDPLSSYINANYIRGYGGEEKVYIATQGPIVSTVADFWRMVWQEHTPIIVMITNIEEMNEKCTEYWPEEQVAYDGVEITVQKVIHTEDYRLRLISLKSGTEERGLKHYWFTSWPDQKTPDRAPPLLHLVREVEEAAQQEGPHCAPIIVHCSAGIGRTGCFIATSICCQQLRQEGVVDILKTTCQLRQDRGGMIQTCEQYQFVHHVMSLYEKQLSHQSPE
Test: STEP46 biochemical assay (DiFMUP fluorescence phosphatase assay)
Settings: DiFMUP 10 μM, read-out: STEP IC50
Procedure: STEP46 Biochemical Assays
Serial dilutions of compounds were performed in 100% DMSO and 1 uL of compounds were dispensed into 384-well black polystyrene plates (Corning, NY). Compounds were incubated with 24 uL of buffer containing 50 mM Hepes, 1 mM DTT, 0.02% Brij35, 1 ng/well purified STEP46 enzyme for 30 min at room temperature. The reaction was initiated by addition of 25 uL of DiFMUP (6, 8-difluoro-4-methylumbelliferyl phosphate) (InVitrogen, CA) with a final concentration of 10 μM and incubated at 27° C. for 90 min. Final DMSO concentration is 2%. Plates were read with florescence intensity at excitation/emission of 360/460 nm using a PheraStar plate reader (BMG Labtech, NC).
Data were expressed as percentage (%) inhibition of enzyme activity. 0% inhibition is defined as the RFUs (relative fluorescence units) in the absence of compounds and 100% inhibition is defined as RFUs in the absence of STEP46 enzyme. IC50 values of compounds with inhibitory activity against STEP46 were determined by GraphPad Prism (version 4.03) using four parameter logistic equation. Some compounds act as activators. For compounds showing STEP46 enzymatic activation, data are represented as percentage of inhibition but with negative values at three representative concentrations (25, 50 and 100 uM).

SMILES | IC50 [nM]
CNc1nc(-c2cccnc2)nc2cc(-c3cccc(C(C)=O)c3)ccc12 [Compound 1350] | 1000 to 10000
CN(C)c1nc(-c2cccnc2)nc2ccc(-c3cccc([N+](=O)[O-])c3)cc12 [Compound 1335] | 1000 to 10000
CCOc1ccc2nc(-c3ccnnc3)nc(Nc3cccc(OC(F)F)c3)c2c1 [Compound 1167] | 1000 to 10000
COc1ccc2nc(-c3cccnc3)nc(Nc3nc(-c4ccccc4Br)cs3)c2c1 [Compound 451] | < 1000
CNc1nc(-c2cccnc2)nc2cc(C)c(-c3ccc(OC)cc3)cc12 [Compound 1420] | 1000 to 10000
CNc1nc(-c2cccnc2)nc2ccc(-c3cc(OC)ccc3OC)cc12 [Compound 1356] | 1000 to 10000
COc1ccc2nc(-c3cccnc3)nc(Nc3cccc4cc[nH]c34)c2c1 [Compound 300] | > 10000
Cc1cccc(CNc2nc(-c3cccnc3)nc3cc(-c4cc(F)ccc4F)ccc23)n1 [Compound 1430] | 1000 to 10000
CNC(=O)c1sc(Nc2nc(-c3cccnc3)nc3ccc(OC)cc23)nc1-c1ccccc1 [Compound 1124, 2-(6-methoxy-2-(pyridin-3-yl)quinazolin-4-ylamino)-N-methyl-4-phenylthiazole-5-carboxamide] | < 1000
CN(C)c1ccc(-c2ccc3nc(-c4cccnc4)nc(Nc4ccc(F)c(Cl)c4)c3c2)cc1 [Compound 668] | < 1000
Fc1ccc(Nc2nc(-c3cccnc3)nc3cc(-c4cccc(F)c4F)ccc23)cc1Cl [Compound 697] | 1000 to 10000
Fc1ccc(-c2ccc3nc(-c4cccnc4)nc(Nc4ccc(F)c(Cl)c4)c3c2)cc1F [Compound 672] | 1000 to 10000
CNc1nc(-c2cccnc2)nc2cc(-c3ccc(F)c(F)c3)c(C)cc12 [Compound 1407] | 1000 to 10000
Fc1ccc(Nc2nc(-c3cccnc3)nc3cc(-c4ccccc4F)ccc23)cc1Cl [Compound 687] | < 1000
COc1ccccc1-c1ccc2c(Nc3ccc(F)c(Cl)c3)nc(-c3cccnc3)nc2c1 [Compound 682] | 1000 to 10000
CNc1nc(-c2cccnc2)nc2ccc(-c3ccc4c(cnn4C)c3)cc12 [Compound 1366] | 1000 to 10000
O=[N+]([O-])c1ccccc1-c1ccc2nc(-c3cccnc3)nc(Nc3ccc(F)c(Cl)c3)c2c1 [Compound 640] | 1000 to 10000
Fc1ccc(Nc2nc(-c3cccnc3)nc3ccc(-c4cccc(OC(F)(F)F)c4)cc23)cc1Cl [Compound 658] | 1000 to 10000
N#Cc1cccc(Nc2nc(-c3cccnc3)nc3cc(-c4ccc(F)cc4)ccc23)c1 [Compound 709] | < 1000
CN(C)c1nc(-c2cccnc2)nc2ccc(-c3ccccc3[N+](=O)[O-])cc12 [Compound 1334] | > 10000
CNc1nc(-c2cccnc2)nc2c(C)cc(-c3ccccc3C#N)cc12 [Compound 1284] | 1000 to 10000
NC(=O)c1ccccc1Nc1nc(-c2cccnc2)nc2cc(-c3cc(F)ccc3F)ccc12 [Compound 706] | < 1000
Clc1ccc(Nc2nc(-c3ccnnc3)nc3ccccc23)cc1Cl [Compound 1215] | < 1000

SMILES | IC50 [nM]
NC(=O)c1ccccc1Nc1nc(-c2cccnc2)nc2cc(-c3ccc(F)c(F)c3)ccc12 [Compound 703] | < 1000
NC(=O)c1ccccc1Nc1nc(-c2cccnc2)nc2cc(-c3cccc(F)c3)ccc12 [Compound 700] | < 1000
O=c1ccc2ccc(Nc3nc(-c4cccnc4)nc4ccc(-c5cccnc5)cc34)cc2[nH]1 [Compound 352] | 1000 to 10000
COc1ccc2nc(-c3cccnc3)nc(Nc3ccccc3C(=O)NC3CCc4ccccc43)c2c1 (centres unmarked) [Compound 898] | > 10000
COc1ccc2nc(-c3cccnc3)nc(Nc3nc(-c4ccc(Cl)cc4)c(C)s3)c2c1 [Compound 461] | 1000 to 10000
Fc1ccc(Nc2nc(-c3cnccn3)nc3ccc(Cl)cc23)cc1Cl [Compound 1159] | 1000 to 10000
CNc1nc(-c2cccnc2)nc2ccc(-c3cccc(-c4ccccc4)c3)cc12 [Compound 1346] | 1000 to 10000
Fc1ccc(Nc2nc(-c3cccnc3)nc3ccc(-c4cccs4)cc23)cc1Cl [Compound 649] | 1000 to 10000
Fc1ccc(-c2ccc3c(Nc4cccc(OC(F)(F)F)c4)nc(-c4cccnc4)nc3c2)cc1 [Compound 708] | 1000 to 10000
Cc1cccc(CNc2nc(-c3cccnc3)nc3ccc(-c4ccc(F)cc4F)cc23)n1 [Compound 1437] | 1000 to 10000
NC(=O)c1ccccc1Nc1nc(-c2cccnc2)nc2cc(Br)ccc12 [Compound 699] | < 1000
COc1ccc2nc(-c3cccnc3)nc(Nc3nc(-c4ccc(OC(F)(F)F)cc4)cs3)c2c1 [Compound 442] | < 1000
CNc1nc(-c2cccnc2)nc2cc(-c3ccc(F)c(F)c3)ccc12 [Compound 1373] | 1000 to 10000
Fc1ccc(-c2ccc3c(Nc4ccc(F)c(Cl)c4)nc(-c4cccnc4)nc3c2)cc1F [Compound 674] | 1000 to 10000
FC(F)Oc1cccc(Nc2nc(-c3cnccn3)nc3ccccc23)c1 [Compound 1214] | 1000 to 10000
CC(=O)Nc1nc(-c2cccnc2)nc2ccc(-c3cccc(F)c3F)cc12 [Compound 1369] | 1000 to 10000
CCOC(=O)c1sc(Nc2nc(-c3cccnc3)nc3ccc(OC)cc23)nc1-c1ccccc1 [Compound 466] | 1000 to 10000
CCOc1ccc2nc(-c3cccnc3)nc(Nc3nc(-c4cc(F)ccc4F)cs3)c2c1 [Compound 471] | 1000 to 10000
CCOC(=O)c1csc(Nc2nc(-c3cccnc3)nc3ccc(OC)cc23)n1 [Compound 474] | 1000 to 10000
CNc1nc(-c2cccnc2)nc2c(C)c(-c3cc(F)cc(F)c3)ccc12 [Compound 1448] | 1000 to 10000
COc1ccc2nc(-c3cccnc3)nc(Nc3ccc4c(C)cc(=O)oc4c3)c2c1 [Compound 316] | < 1000
CNc1nc(-c2cccnc2)nc2cc(-c3cc(F)cc(F)c3)c(C)cc12 [Compound 1408] | 1000 to 10000
COc1ccc2nc(-c3ccnnc3)nc(Nc3ccccc3C(N)=O)c2c1 [Compound 1198] | 1000 to 10000

SMILES | IC50 [nM]
CNc1nc(-c2cncnc2)nc2ccc(-c3cccc(F)c3F)cc12 [Compound 1239] | 1000 to 10000
COc1ccc2nc(-c3cccnc3)nc(Nc3nc(-c4ccc(F)cc4F)cs3)c2c1 [Compound 446] | 1000 to 10000
COc1ccc2nc(-c3cccnc3)nc(Nc3nc(-c4ccc(F)c(F)c4)cs3)c2c1 [Compound 445] | < 1000
FC(F)Oc1cccc(Nc2nc(-c3cncnc3)nc3ccccc23)c1 [Compound 1211] | > 10000
CNc1nc(-c2cccnc2)nc2cc(-c3cccc(OC)c3)c(C)cc12 [Compound 1412] | 1000 to 10000
CN(C)c1nc(-c2cccnc2)nc2ccc(-c3cccc(F)c3F)cc12 [Compound 1380] | 1000 to 10000
COc1cc(Cl)cc(-c2ccc3nc(-c4cccnc4)nc(Nc4ccc(F)c(Cl)c4)c3c2)c1 [Compound 663] | < 1000
Cc1cccc2c(Nc3ccc(F)c(Cl)c3)nc(-c3cnccn3)nc12 [Compound 1176] | 1000 to 10000
CCOc1ccc2nc(-c3cccnc3)nc(Nc3ccc4ccsc4c3)c2c1 [Compound 315] | 1000 to 10000
CCOc1ccc2nc(-c3cccnc3)nc(Nc3ccc4ccc(=O)[nH]c4c3)c2c1 [Compound 335] | < 1000
COc1ccc2nc(-c3cccnc3)nc(Nc3nnc(-c4ccc(Br)cc4)s3)c2c1 [Compound 428] | 1000 to 10000
CNc1nc(-c2cccnc2)nc2cc(-c3cccc(Cl)c3)ccc12 [Compound 1353] | 1000 to 10000
COc1ccc2nc(-c3cccnc3)nc(Nc3nc(-c4ccc(F)cc4)cs3)c2c1 [Compound 419] | < 1000
CNc1nc(-c2cccnc2)nc2cc(-c3ccc(C#N)cc3)ccc12 [Compound 1365] | 1000 to 10000
COc1ccc2nc(-c3cccnc3)nc(Nc3ccc4nonc4c3)c2c1 [Compound 332] | < 1000
COc1ccc2nc(-c3cccnc3)nc(Nc3ccc4scnc4c3)c2c1 [Compound 320] | 1000 to 10000
Fc1ccc(Nc2nc(-c3ccnnc3)nc3cc(Cl)ccc23)cc1F [Compound 1202] | 1000 to 10000
COc1ccc2nc(-c3cccnc3)nc(Nc3ccc4ccc(=O)[nH]c4c3C)c2c1 [Compound 343] | > 10000
COc1ccc2nc(-c3cccnc3)nc(Nc3nc(-c4ccc(C(F)(F)F)cc4)cs3)c2c1 [Compound 443] | < 1000
COc1ccc2nc(-c3cccnc3)nc(Nc3nc4ccccc4n3C)c2c1 [Compound 407] | 1000 to 10000
COc1ccc2nc(-c3cccnc3)nc(Nc3ccc4c(c3)OC(F)(F)C(F)(F)O4)c2c1 [Compound 322] | > 10000
NC(=O)c1ccc(-c2ccc3nc(-c4cccnc4)nc(Nc4ccc(F)c(Cl)c4)c3c2)cc1 [Compound 656] | < 1000
